Experimental findings from patent publication US20220365087A1, “METHOD FOR ACQUIRING DATA FOR DISTINGUISHING PRESENCE OF CANCER CELLS AND/OR DISTINGUISHING ANTICANCER DRUG RESISTANCE, METHOD FOR ACQUIRING PREDICTION DATA, USE OF DISTINCTION MARKER IN SAME, AND DISTINGUISHING KIT” (KEIO UNIVERSITY, priority 2019, published 2022) are described below.

For test [1], the system named is plasmid (pcDNA3.1 empty vector) double strand DNA. Nature of the test: Gel shift assay of DNA supercoiling disturbance by cisplatin. The settings on record: 37° C. for 60 minutes; for effect on disturbance of double strand DNA supercoiling by cisplatin (CDDP): preincubation of plasmid with Na2Sn, then 60 μM CDDP. In kind it is biochemical. As for the experimental part: To quantify the degree of DNA intercalation by cisplatin (CDDP) that disturbs DNA supercoiling, 1 μg of plasmid (pcDNA3.1 empty vector, #V79020, Invitrogen) was mixed with a predetermined concentration of Na2Sn (n=an integer of 1 to 4), and preincubated in 10 mM phosphate-buffered saline (PBS, pH6.0) at room temperature for 5 minutes. Then, a CDDP solution was added to the solution to obtain a final concentration of 60 μM. Thereafter, the mixed solution was incubated at 37° C. for 60 minutes. After the incubation, the reaction products in the mixed solution were separated by electrophoresis using 1% agarose gel for determination of the DNA secondary structure.
It was previously shown that cisplatin can disturb DNA supercoiling by being intercalated between bases of double-stranded DNA structures and causing structural changes (Non-patent Document 4). In this study, the present inventors determined in vitro that cisplatin induced change in the bulk molecular volume of supercoiling DNA, and the bulk molecular volume was recovered by addition of polysulfide (FIG. 3).
This can be inferred because of the enhanced reducing power of the polysulfide with the increase in the number of sulfur atoms.
For orientation: A gel shift assay detects complexes by their altered migration in electrophoresis.

Test [2] deals with ovarian serous carcinoma (SC). Nature of the test: Effectiveness of the anticancer drug in ovarian serous carcinoma. It is filed as in vivo.
The subject of test [3] is ovarian clear cell carcinoma (CCC). Nature of the test: Effectiveness of the anticancer drug in ovarian clear cell carcinoma. In kind it is in vivo.

With `N.N.[Cl][Pt][Cl]` [cisplatin], in test [1] (CDDP final concentration 60 μM, 1 μg plasmid, 1% agarose gel), the “change in the bulk molecular volume of supercoiling double strand DNA” value is on record as “increased the bulk molecular volume of double strand DNA”. Besides, the figures for the “effectiveness as an anticancer drug” value in test [2] and in test [3] were “more effective” and “less effective”, respectively.

Turning to `[Na+].[Na+].[S-]S[S-]` [Na2S3], the “effect on disturbance of double strand DNA supercoiling by cisplatin (CDDP)” value (“effect on disturbance” below) in test [1] is “attenuated”.

In the case of `[Na+].[Na+].[S-]SS[S-]` [Na2S4], the “effect on disturbance” value in test [1] was “attenuated”.

For `[Na+].[Na+].[S-2]` [Na2S], in test [1], the “effect on disturbance” value is given as “attenuated”.

With `[Na+].[Na+].[S-][S-]` [Na2S2], the “effect on disturbance” value in test [1] is given as “attenuated”.
